The numbers were not newly measured in article PMC7832358, “Trending Topics on Coumarin and Its Derivatives in 2020” (Molecules, 2021), which cites them from elsewhere.

One may read the IC50 as the concentration that inhibits the measured activity by half.

For one series, the system named is hMAO-B. To be noted: read-out: hMAO-B inhibition IC50.
A further series concerns reserpinized mice. The conditions noted are these: reserpinized mice pre-treated with levodopa and benserazide.
Series [1] has as its system streptozotocin (STZ)-induced cognitive dysfunction in rats.
Series [2] shares this test system. This is another data set of the same source.
Another series relates to tyrosinase. More on the design: method as in PMID 32652434.
Details of series [3]: method as in PMID 31887477. To be noted: inhibitor of thioredoxin reductases (TrxRs); read-out: antitumor activity IC50.
A further series has as its system Ebolavirus (EBOV). The conditions noted are these: read-out: IC50 against EBOV.
The next series deals with Marburg virus (MARV). To be noted: read-out: IC50 against MARV.
For another series, the target named is xanthine oxidase. Set-up: method as in PMID 32574739. The conditions noted are these: read-out: xanthine oxidase inhibition IC50.
The subject of another series is B16F10 cells. More on the design: method as in PMID 32574739.
A further series has as its system hA3 receptors. More on the design: method as in PMID 31738058. The conditions noted are these: antagonists.

For `O=c1oc2cc(O)ccc2cc1-c1cc(Br)cs1` [3-(4′-bromothiophen-2′-yl)-7-hydroxycoumarin], the IC50 in the series on hMAO-B was 140 nM. The “in vivo profile on locomotor activity (OFT) versus selegiline” value with reserpinized mice is “slightly better in vivo profile than selegiline”.

Take `O=c1ccc2ccc(O)cc2o1` [umbelliferone]: in series [1], the “cognitive deficits in the Morris water maze and object recognition tests” value is given as “prevent cognitive deficits”. For the same compound, in [2], the “activity of hippocampal AChE” value was “reduced”, the “expression of NF-κB inhibitor (IκB-α)” value is recorded as “upregulating”, the glutathione content entry is “increasing” and the level of malondialdehyde result is “reduced”. Also, in series [2], the “level of proinflammatory cytokines” value is listed as “reducing”; the “overexpression of inflammatory markers (nuclear factor κB and cyclooxygenase II)” value is given as “inhibiting”.

In the case of `O=c1cc(OCc2cn(Cc3cocc(O)c3=O)nn2)c2ccccc2o1` [compound XXVI], in the series on tyrosinase, the tyrosinase inhibitory activity entry is “sub-micromolar range”.

For the compound `CCN(CC)c1ccc2cc(/C=C/C(=O)c3ccc(OC)c(O)c3)c(=O)oc2c1` [compound V], the IC50 in series [3] is 3600 nM.

In the case of `Cc1c(Cc2ccc(OC(F)(F)F)cc2)c(=O)oc2cc(OCC(O)CN3CCC(C(N)=O)CC3)ccc12` (stereo not shown) [compound XVI], the figures for the IC50 in the series with Ebolavirus (EBOV) and with Marburg virus (MARV) were 500 nM and 1200 nM, respectively.

`COc1ccc(-c2cc3cc([N+](=O)[O-])ccc3oc2=O)cc1` [3-(4-methoxyphenyl)-6-nitrocoumarin]: the IC50 at xanthine oxidase was 8400 nM. Besides, in the series on B16F10 cells, the “cytotoxicity in B16F10 cells” value is listed as “non-cytotoxic”.

On to `COc1c2occc2cc2ccc(=O)oc12` [xanthotoxin], for which the “cognitive deficits in the Morris water maze and object recognition tests” value in series [1] was “prevent cognitive deficits”. In series [2], the “activity of hippocampal AChE” value is given as “reduced”, the “expression of NF-κB inhibitor (IκB-α)” value is listed as “upregulating”, the glutathione content result is given as “increasing” and the level of malondialdehyde entry is listed as “reduced”. In addition, the “level of proinflammatory cytokines” value in [2] is reported as “reducing”.

For `O=c1oc2c(O)cccc2cc1-c1ccc(Br)cc1` [compound XX], in the series on hA3 receptors, the hA3 receptor affinity result is “low nanomolar range”.
